From PubChem BioAssay (NCI) come the findings set out here.

The structures appear in SMILES notation.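 Results reflect a 48-hour exposure of cells in 96-well plates to compound at five concentrations. Definition used: TGI = concentration required for complete inhibition of growth.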 Where a SMILES comes first, the peptide text is derived from it. [ ]: non-standard residue; d: D form. The star is where a group is joined. Bn2Val = CC(C)[C@@H](C(=O)*)N(Cc1ccccc1)Cc1ccccc1; NH(3,4-diMeO-benzyl) = COc1ccc(CN*)cc1OC; NMeV = CN[C@H](C(=O)O)C(C)C Where only a bound is given, the exact number is not on record here.

Some test systems named below: 786-0 renal; HS 578T breast; M14 melanoma; MDA-MB-231 breast; MDA-MB-435; NCI-H460 lung; NCI-H522 lung; OVCAR-3 ovarian; OVCAR-4 ovarian; OVCAR-8 ovarian; SF-268 CNS; SF-295 CNS; SK-MEL-2 melanoma; SW-620 colon; T-47D breast; TK-10 renal; U251 CNS; MCF7 breast.
Common to all, as to assay: DTP human tumour cell line panel, 48 h

Broadly, the TGI is the concentration giving total growth inhibition. As for `COc1ccc(C2=NN(C(=O)c3cccnc3)C(O)(c3cc(F)c(Cl)cc3Cl)C2)cc1OC` (stereo not drawn), the TGI in the assay with 786-0 renal was determined as 62.2 µM; in the assay on HS 578T breast it was 66.9 µM; in the assay on M14 melanoma, 34.6 µM; in the assay with MDA-MB-231 breast it was 37.9 µM; with MDA-MB-435, 87.4 µM; in the assay with NCI-H460 lung, 38.3 µM. The TGI in the assay on NCI-H522 lung is 34.9 µM; in the assay on OVCAR-3 ovarian it was 27.6 µM; with OVCAR-4 ovarian it was > 100 µM; with OVCAR-8 ovarian, 35.7 µM; in the assay on SF-268 CNS, 39.8 µM; in the assay on SF-295 CNS it was 39 µM. Besides, the TGI in the assay with SK-MEL-2 melanoma was 32 µM; in the assay with SW-620 colon, 69.8 µM; in the assay with T-47D breast, > 100 µM; in the assay with TK-10 renal, > 100 µM; in the assay with U251 CNS it was 29.1 µM.
For `CC[C@H]1C=CCC[C@@]2(C[C@@H]3CC[C@H]4[C@H](C(=O)OCCCCCCCCCCCCCCCC(=O)N(CCCN)C[C@@H](O)CCN)[C@]5(CCC[C@@H](C)O5)NC(=[N+]34)N2)O1`, the TGI came out at 1.86 µM with 786-0 renal; 4.26 µM in the assay on HS 578T breast; 0.495 µM with M14 melanoma; 1.51 µM with MCF7 breast; 1.2 µM with MDA-MB-435; 1.87 µM with NCI-H460 lung. Besides, the TGI in the assay with NCI-H522 lung came to 2.72 µM; with OVCAR-3 ovarian, 3.02 µM; in the assay on OVCAR-4 ovarian, 2.44 µM; in the assay with OVCAR-8 ovarian it was 2.92 µM; in the assay with SF-268 CNS, 3.46 µM; in the assay with SF-295 CNS, 3.31 µM. Besides, the TGI in the assay on SK-MEL-2 melanoma is 2.06 µM; in the assay with SW-620 colon, 3.51 µM; with TK-10 renal, 2.98 µM; with U251 CNS it was 1.44 µM.
For the compound `Cc1ccc(S(=O)(=O)Nn2c(O)c(C#N)c(-c3ccc(N(C)C)cc3)c(C#N)c2=O)cc1`, the TGI with 786-0 renal, in the assay with HS 578T breast, in the assay with MCF7 breast, with MDA-MB-231 breast, with MDA-MB-435 and in the assay on NCI-H460 lung was > 50 µM throughout. Moreover, the TGI with NCI-H522 lung is > 50 µM; in the assay with OVCAR-4 ovarian it was > 50 µM; in the assay on OVCAR-8 ovarian it was > 50 µM; in the assay with SF-268 CNS, > 50 µM; in the assay with SF-295 CNS, 5.32 µM; with SK-MEL-2 melanoma it was > 50 µM. The TGI in the assay on SW-620 colon, in the assay on TK-10 renal and in the assay with U251 CNS was > 50 µM each time.
On to `COc1ccc(CNC(=O)[C@@H]2CCCN2C(=O)[C@@H]2CCCN2C(=O)[C@H](C(C)C)N(C)C(=O)[C@@H](NC(=O)[C@H](C(C)C)N(Cc2ccccc2)Cc2ccccc2)C(C)C)cc1OC` (Bn2Val-V[NMeV]PP-{NH(3,4-diMeO-benzyl)}), for which the total growth inhibition concentration (TGI) is 26.5 µM in the assay with 786-0 renal; > 100 µM with HS 578T breast; 29.4 µM with M14 melanoma; 42.3 µM in the assay on MDA-MB-231 breast; 39 µM with MDA-MB-435; > 60.5 µM in the assay on NCI-H460 lung. The TGI was 20.6 µM in the assay on NCI-H522 lung; 27.6 µM with OVCAR-3 ovarian; 42.6 µM in the assay on OVCAR-4 ovarian; 30.3 µM with OVCAR-8 ovarian; > 48.1 µM with SF-268 CNS; 29.9 µM in the assay with SF-295 CNS. Besides, the TGI in the assay on SK-MEL-2 melanoma was 34.5 µM; in the assay on SW-620 colon, > 60.8 µM; in the assay with T-47D breast, 48.3 µM; with TK-10 renal, 29.5 µM; with U251 CNS, 45.7 µM.
Consider `Fc1ccc2c3c([nH]c2c1)CCNC3`, for which the TGI in the assay with 786-0 renal, in the assay on HS 578T breast, in the assay with M14 melanoma, in the assay on MCF7 breast, in the assay on MDA-MB-231 breast and in the assay with MDA-MB-435 was > 100 µM throughout. The TGI with NCI-H460 lung, with OVCAR-4 ovarian, with OVCAR-8 ovarian, in the assay on SF-268 CNS, in the assay with SF-295 CNS and in the assay with SW-620 colon was > 100 µM in each case. In addition, the TGI in the assay with T-47D breast, in the assay on TK-10 renal and in the assay on U251 CNS was > 100 µM in each case.
Consider `CCN(CC)C(=S)SS(=O)(=O)c1ccc(NC(C)=O)cc1`, for which the TGI in the assay with 786-0 renal is 36.5 µM; with HS 578T breast it was > 100 µM; with M14 melanoma it was 33 µM; with MDA-MB-231 breast, 36.4 µM; with MDA-MB-435, 33.4 µM; in the assay on NCI-H460 lung, > 100 µM. For the same compound, the total growth inhibition concentration (TGI) with NCI-H522 lung is 0.84 µM; in the assay with OVCAR-3 ovarian it was > 100 µM; with OVCAR-4 ovarian, 54.3 µM; in the assay on OVCAR-8 ovarian, 29.1 µM; with SF-268 CNS, > 70.2 µM; with SF-295 CNS it was > 100 µM. Besides, the TGI was > 100 µM with SK-MEL-2 melanoma; 32 µM with SW-620 colon; > 100 µM in the assay with T-47D breast; > 76 µM with TK-10 renal; 44.6 µM in the assay on U251 CNS.
Turning to `Cn1c(=O)n2n(c1=O)[C@@H](c1ccccc1)[C@H]2c1ccccc1`, the TGI with 786-0 renal, in the assay on HS 578T breast, in the assay on M14 melanoma, with MCF7 breast, with MDA-MB-231 breast and in the assay with NCI-H460 lung was > 100 µM throughout. Also, the TGI in the assay on OVCAR-3 ovarian, in the assay with OVCAR-4 ovarian, in the assay on OVCAR-8 ovarian, in the assay on SF-295 CNS, in the assay with SK-MEL-2 melanoma and with SW-620 colon was > 100 µM in each case. Also, the TGI in the assay on TK-10 renal and with U251 CNS was > 100 µM throughout.
For the compound `O=c1c2cc(S(=O)(=O)Nc3c(Cl)cccc3Cl)ccc2ncn1NS(=O)(=O)c1ccc2ccccc2c1`, the TGI in the assay with 786-0 renal, in the assay with HS 578T breast, in the assay on M14 melanoma, in the assay on MCF7 breast, in the assay on MDA-MB-231 breast and in the assay with MDA-MB-435 was > 62.5 µM in each case. For the same compound, the TGI in the assay on NCI-H460 lung, with NCI-H522 lung, in the assay with OVCAR-3 ovarian, with OVCAR-4 ovarian, in the assay on OVCAR-8 ovarian and in the assay on SF-268 CNS was > 62.5 µM each time. Further, the TGI in the assay with SF-295 CNS, in the assay on SK-MEL-2 melanoma, in the assay with SW-620 colon, in the assay on TK-10 renal and with U251 CNS was > 62.5 µM in each case.
